Consider two compounds from patent US6812222B1, “Biocompatible aqueous solution for use in continuous ambulatory peritoneal dialysis” (priority 1995, dated 2004).

One data set concerns peritoneal membrane. The data set is classed as in vivo, rats. Conditions: for Hyaluronic Acid in Dialysate Fluid / Mass Transfer Area Coef for Urea / Peritoneal Clearance of Urea: 4 hours dwell; for Net Ultrafiltration: pH 7.35-7.4, 4 hours dwell, 20 mL infused. As for the experimental part:
In experiments in which rats were dialyzed for 4 hours with Hanks Balances salt solution with either glucose or N-acetylglucosamine added at a concentration of 75 mM or 214 mM, at a pH of 7.35-7.4. The net utrafiltration was calculated as the difference between the drained volume of dialysate after 4 hours dwell time in the peritoneal cavity and the infused volume (20 mL) of the dialysis fluid. As well, the concentration of urea and creatinine in the blood and the dialysis fluid were measured. Permeability of the peritoneal membrane to urea and creatinine, expressed as the Mass Transfer Area Coefficient which was calculated according to the method of Krediet et al (Blood Purif 4: 194, 1986). […] In addition, the inclusion of NAG in the dialysate fluid stimulated the synthesis of hyaluronic acid, as shown by the more than 100% increase in amount of hyaluronic acid secreted in the dialysis fluid compared to the glucose treated rats.

The test system of a further data set is human mesothelial cells. Briefly: Stimulation of hyaluronic acid in tissue culture of human mesothelial cells. The data set is classed as cell-based.
Data set [1] deals with chemically induced inflammatory bowel reaction with bowel wall thickening or fibrosis. Briefly: Colon fibrosis (weight of 8 cm of colon) after intrarectal TNB/ethanol in rats. The data set is classed as in vivo. The note with it: for Colon fibrosis (as measured by weight of 8 cm of colon), mean ± SEM: rats. The source says:
In animal models of inflammatory bowel disease the colon becomes fribrotic, as does the peritoneum as a result of chronic intraperitoneal dialysis. […] It is to be expected that in a similar manner NAG will prevent the development of fibrosis of the peritoneum in CAPD patients. [table]

The conditions of data set [2]: 7.5% solution; cited from earlier work.
Setting [3] is: versus glucose, rats dialyzed 4 hours.

Where two headings read alike, the source gives them in different places.

Regarding `CC(=O)N[C@H]1C(O)O[C@H](CO)[C@@H](O)[C@@H]1O` (stereo partly shown) [NAG, N-acetylglucosamine], in the data set on peritoneal membrane (75 mM in dialysis fluid), the “Hyaluronic Acid in Dialysate Fluid” value turned out to be 226 ± 93 µg/L, the “Mass Transfer Area Coef for Urea” value is 0.287 ± 0.13 mL/min, the “Peritoneal Clearance of Urea” value came to 18.4 ± 2.1 mL/min and the “Net Ultrafiltration” value is given as −0.11 ± 1.6 mL/4 hrs. Besides, in the data set with peritoneal membrane (214 mM in dialysis fluid), the “Hyaluronic Acid in Dialysate Fluid” value was determined as 217 µg/L, the “Mass Transfer Area Coef for Urea” value is given as 0.262 ± 0.15 mL/min, the “Peritoneal Clearance of Urea” value was determined as 30.0 mL/min and the “Net Ultrafiltration” value was determined as 14.45 mL/4 hrs. In addition, the “Increase in amount of hyaluronic acid secreted in the dialysis fluid” value in the data set with peritoneal membrane (compared to the glucose treated rats) is given as “more than 100%”. Moreover, in the data set on peritoneal membrane (rat, in vivo), the “Albumin or total protein loss into the dialysis fluid (in words)” value was “without increasing”. For the same compound, in the data set with peritoneal membrane (setting [3]), the “Net ultrafiltration (in words)” value was “statistically significant increase” and the “Peritoneal clearance of urea (in words)” value is recorded as “statistically significant increase”. Further, in the data set on human mesothelial cells, the “Stimulation of hyaluronic acid” value is on record as “stimulation of hyaluronic acid by N-acetylglucosamine was confirmed”. The “Colon fibrosis (as measured by weight of 8 cm of colon), mean ± SEM” value (“Colon fibrosis … mean ± SEM” for short) in data set [1] (25 mg NAG/kg BWt intrarectal 1 hr before TNB/EtOH) was 1.669 ± 0.142 gm. Besides, the “Colon fibrosis … mean ± SEM” value in data set [1] (50 mg NAG/kg BWt intrarectal 1 hr before TNB/EtOH) stood at 1.339 ± 0.155 gm. For the same compound, the “Colon fibrosis … mean ± SEM” value in data set [1] (100 mg NAG/kg BWt intrarectal 1 hr before TNB/EtOH) was determined as 1.150 ± 0.068 gm. Also, the “Fibrotic reaction to the inflammatory stimulus” value in data set [1] (solution of NAG administered into the bowel of rats) is on record as “reduces in a dose dependent manner”.
Regarding Icodextrin, in data set [2], the Osmolality is 282 mOsm/kg and the pH of solution was 5.3.
